Experimental data reported in patent US6469027B1, “N-methyl-D-aspartate (NMDA) receptor blockers for the prevention of atherosclerosis” (The Board of Regents of the University of Nebraska, priority 1996, dated 2002).

How the values were obtained:
c-fos = c-fos mRNA in N-VSMC (RNA blot); assay type: cell-based, chicken
Method: FIGS. 3A, 3B and 3C are RNA blot analyses of c-fos and c-myb mRNA isolated from N-VSMC cultures. Cultures were incubated in the absence and presence of 200μM H[cys] for 0, (lane 1); 15 min, (lane 2); 30 min, (lane 3); 45 min, (lane 4) and 60 min, (lane 5); and analyzed for c-fos expression. In FIG. 3B, the time course of c-myb MRNA induction in the presence of 200μM H[cys] for 0 h, (lane 1); 8 h, (lane 2); 16 h, (lane 3); 24 h, (lane 4). The c-fos transcripts were analyzed by northern blot and normalized to β actin expression. The amount of c-myb mRNA levels were normalized to estrogen receptor (ER) transcripts as determined by RT-PCR. […] The amount of c-myb mRNA levels were normalized to estrogen receptor (ER) transcripts as determined by RT-PCR. The amount of specific radiolabeling in the autoradiograph was quantified by scanning densitometry. The size of the c-Myb protein is 75 kilodaltons. The 75 kilodalton band is defined as c-Myb because immunoprecipitation of this protein was not detected in the presence of synthetic polypeptide [[…] encoded by sequences 1080-1133].
RNA Blot Analysis: Total RNA was isolated from VSMC derived from thoracic and abdominal aorta by homogenization, and lysis with guanidinium isothiocyanate was followed by phenol-chloroform extraction. […]

diacylglycerol = experiment: sn-1,2-Diacylglycerol assay in VSMC; assay type: cell-based, chicken
Method: FIGS. 7A-7C are graphs illustrating the effect of H[cys] on diacylglycerol content in N-VSMC. (A) Time course of changes of membrane diacylglycerol content cell treated with 100μM H[cys] for the various times. Cells were recovered, membrane lipids extracted and diacylglycerol amounts determined as described in Methods. Results are expressed as the mean ± standard error of quadruplicate incubations from six independent experiments. (B) Effects of varying concentrations of H[cys] on diacylglycerol synthesis. Cells were treated for 30 min with different concentrations of H[cys] and membrane lipids were isolated and the diacylglycerol content determined. (C) Effect of PKC inhibitors on H[cys] mediated cell proliferation. N-VSMC cultures were grown in 1% FBS and 100 μM H[cys] in the presence and absence of staurosporine and cheleyrithrine chloride for the times (days-d) indicated. Cells were counted in quadruplicate in a Coulter counter every three days. Values represent the mean ±S.D. from four independent experiments.
.sn-1,2-Diacylglycerol assay: VSMC were treated with 0.01 to 100 μM H[cys] for 15-60 min. Cells were harvested and lipids were extracted by the method of Priess et al., (18). The analysis of diacylglycerol synthesis was as described previously by Wrenn et al. Wrenn, R. W. et al. (1993). […]

[1] = tested on: Thoracic aorta VSMC from E14 embryos; experiment: Intracellular Ca++ by Fura 2 fluorometry; assay type: cell-based, chicken; settings: 200 μM Hcy
Method: FIGS. 8A and 8B are graphs illustrating E14 embryonic neural crest-derived response to Hcy. (A) Normal E14 cell response; (B) Ca++ influx is prevented by 15 min pretreatment with NMDA receptor blocker MK801, which acts at the NMDA receptor calcium channel.
The most common signaling device for mitosis is calcium influx. Therefore, the inventors measured the change in intracellular Ca^++ by Fura 2 fluorometry. Thoracic aorta VSMC from E14 embryos were harvested and grown on coverslips using the procedure set forth above. Fura 2 was added during 45 minutes at room temperature. Then the cover slips were placed in a photometer. Fura 2 was excited at 350 and 380 nm with a xenon light source, appropriate monochromators and a chopper (Deltascan, Princeton). Emitted signals passed through a 510±20 band pass filter. When the cells were treated with a solution of 200 μM Hcy, there was a rapid flux of Ca^++ that reached a plateau in about 50 seconds, and remained elevated for the duration of the 500 sec measurement interval as shown in FIGS. 8A and 8B. Similar results have been found with adult rabbit aortic smooth muscle cells, as set forth below.

[2] = tested on: human aortic smooth muscle cells; experiment: 3H thymidine uptake in human aortic smooth muscle cells; assay type: cell-based
Method: FIG. 13 is a graph illustrating 3 H thymidine uptake of human aortic smooth muscle cells in response to differing concentrations of Hcy.
Smooth muscle cell cultures were established from samples of thoracic aorta obtained during organ transplantation. Confluent early passage cells were growth arrested by serum starvation, then they were treated with Hcy in serum free (defined) medium.

**Q.** For N[C@@H](CCS)C(=O)O [homocysteine], which “c-fos mRNA transcripts induced” value (c-fos; 200 μM homocysteine) is on record?
**A.** Its value is 15 fold.

**Q.** What about the c-fos induction (c-fos; neural crest derived smooth muscle cells) of the same compound?
**A.** Its c-fos induction is “induced”.

**Q.** And the “concentration at which increase in DAG membrane levels was first evident” value (diacylglycerol; 30 min)?
**A.** The value was 3 µM.

**Q.** And the “increase in DAG production” value (diacylglycerol; treated for 15-60 min)?
**A.** Its value is 3 fold.

**Q.** And the “time for Ca++ flux to reach a plateau” value [1]?
**A.** Its value is “about 50 seconds”.

**Q.** What about the “effect on DNA synthesis” value ([2]; human cell cultures of N-VSMC (data not shown)) of the same compound?
**A.** The value was “observed”.

**Q.** What about the “uptake of 3H thymidine” value ([2]; thoracic aorta cells, serum free medium) of the same compound?
**A.** The value was “significant, dose-responsive increase”.
